Experimental data: patent US9586951B2 (FUJIFILM Corporation, priority 2013, dated 2017)

Target: T1, ATM (Homo sapiens, UniProt Q13315)
T1 construct: detecting phosphorylation of Chk2 in a human non-small cell lung cancer cell line NCI-H460 (ATCC company); host or cells: NCI-H460 human non-small cell lung cancer cells
Assay: ATM inhibition test (phosphorylation of Chk2 generated by ionizing radiation, AlphaScreen SureFire)
Assay type: cell-based
Conditions: phosphorylated Chk2 in NCI-H460 cells, ionizing radiation 8Gy, 1 hour after test compound treatment; read-out: ATM inhibitory activity
Method: ATM inhibitory effects of a test compound were measured by detecting phosphorylation of Chk2 in a human non-small cell lung cancer cell line NCI-H460 (ATCC company). The level of phosphorylated Chk2 generated by an ionizing radiation was measured using AlphaScreen SureFire (TGR Biosciences).
The cells were seeded by 40000 cells per well in 96-well CellBIND® plates (Corning International Inc.), and incubated at 37° C. overnight in 5% CO2. […] 1 hour after a test compound treatment, half of the plates were irradiated with ionizing radiation 8Gy (Faxitron Bioptics, LLC, RX-650 type). The plates irradiated with ionizing radiation and the plates not being irradiated with ionizing radiation were incubated at 37° C. for 1 hour in 5% CO2. […] Subsequent operations were performed according to the instruction book of AlphaScreen SureFire. […] The inhibition ratio was calculated by the following equation. Inhibition ratio (%)=((signal of drug untreated wells in the plates irradiated with ionizing radiation−signal of drug treated wells in the plates irradiated with ionizing radiation)/(signal of drug untreated wells in the plates irradiated with ionizing radiation−signal of drug untreated wells in the plates not being irradiated with ionizing radiation))×100

T1 sequence (Q13315 whole entry): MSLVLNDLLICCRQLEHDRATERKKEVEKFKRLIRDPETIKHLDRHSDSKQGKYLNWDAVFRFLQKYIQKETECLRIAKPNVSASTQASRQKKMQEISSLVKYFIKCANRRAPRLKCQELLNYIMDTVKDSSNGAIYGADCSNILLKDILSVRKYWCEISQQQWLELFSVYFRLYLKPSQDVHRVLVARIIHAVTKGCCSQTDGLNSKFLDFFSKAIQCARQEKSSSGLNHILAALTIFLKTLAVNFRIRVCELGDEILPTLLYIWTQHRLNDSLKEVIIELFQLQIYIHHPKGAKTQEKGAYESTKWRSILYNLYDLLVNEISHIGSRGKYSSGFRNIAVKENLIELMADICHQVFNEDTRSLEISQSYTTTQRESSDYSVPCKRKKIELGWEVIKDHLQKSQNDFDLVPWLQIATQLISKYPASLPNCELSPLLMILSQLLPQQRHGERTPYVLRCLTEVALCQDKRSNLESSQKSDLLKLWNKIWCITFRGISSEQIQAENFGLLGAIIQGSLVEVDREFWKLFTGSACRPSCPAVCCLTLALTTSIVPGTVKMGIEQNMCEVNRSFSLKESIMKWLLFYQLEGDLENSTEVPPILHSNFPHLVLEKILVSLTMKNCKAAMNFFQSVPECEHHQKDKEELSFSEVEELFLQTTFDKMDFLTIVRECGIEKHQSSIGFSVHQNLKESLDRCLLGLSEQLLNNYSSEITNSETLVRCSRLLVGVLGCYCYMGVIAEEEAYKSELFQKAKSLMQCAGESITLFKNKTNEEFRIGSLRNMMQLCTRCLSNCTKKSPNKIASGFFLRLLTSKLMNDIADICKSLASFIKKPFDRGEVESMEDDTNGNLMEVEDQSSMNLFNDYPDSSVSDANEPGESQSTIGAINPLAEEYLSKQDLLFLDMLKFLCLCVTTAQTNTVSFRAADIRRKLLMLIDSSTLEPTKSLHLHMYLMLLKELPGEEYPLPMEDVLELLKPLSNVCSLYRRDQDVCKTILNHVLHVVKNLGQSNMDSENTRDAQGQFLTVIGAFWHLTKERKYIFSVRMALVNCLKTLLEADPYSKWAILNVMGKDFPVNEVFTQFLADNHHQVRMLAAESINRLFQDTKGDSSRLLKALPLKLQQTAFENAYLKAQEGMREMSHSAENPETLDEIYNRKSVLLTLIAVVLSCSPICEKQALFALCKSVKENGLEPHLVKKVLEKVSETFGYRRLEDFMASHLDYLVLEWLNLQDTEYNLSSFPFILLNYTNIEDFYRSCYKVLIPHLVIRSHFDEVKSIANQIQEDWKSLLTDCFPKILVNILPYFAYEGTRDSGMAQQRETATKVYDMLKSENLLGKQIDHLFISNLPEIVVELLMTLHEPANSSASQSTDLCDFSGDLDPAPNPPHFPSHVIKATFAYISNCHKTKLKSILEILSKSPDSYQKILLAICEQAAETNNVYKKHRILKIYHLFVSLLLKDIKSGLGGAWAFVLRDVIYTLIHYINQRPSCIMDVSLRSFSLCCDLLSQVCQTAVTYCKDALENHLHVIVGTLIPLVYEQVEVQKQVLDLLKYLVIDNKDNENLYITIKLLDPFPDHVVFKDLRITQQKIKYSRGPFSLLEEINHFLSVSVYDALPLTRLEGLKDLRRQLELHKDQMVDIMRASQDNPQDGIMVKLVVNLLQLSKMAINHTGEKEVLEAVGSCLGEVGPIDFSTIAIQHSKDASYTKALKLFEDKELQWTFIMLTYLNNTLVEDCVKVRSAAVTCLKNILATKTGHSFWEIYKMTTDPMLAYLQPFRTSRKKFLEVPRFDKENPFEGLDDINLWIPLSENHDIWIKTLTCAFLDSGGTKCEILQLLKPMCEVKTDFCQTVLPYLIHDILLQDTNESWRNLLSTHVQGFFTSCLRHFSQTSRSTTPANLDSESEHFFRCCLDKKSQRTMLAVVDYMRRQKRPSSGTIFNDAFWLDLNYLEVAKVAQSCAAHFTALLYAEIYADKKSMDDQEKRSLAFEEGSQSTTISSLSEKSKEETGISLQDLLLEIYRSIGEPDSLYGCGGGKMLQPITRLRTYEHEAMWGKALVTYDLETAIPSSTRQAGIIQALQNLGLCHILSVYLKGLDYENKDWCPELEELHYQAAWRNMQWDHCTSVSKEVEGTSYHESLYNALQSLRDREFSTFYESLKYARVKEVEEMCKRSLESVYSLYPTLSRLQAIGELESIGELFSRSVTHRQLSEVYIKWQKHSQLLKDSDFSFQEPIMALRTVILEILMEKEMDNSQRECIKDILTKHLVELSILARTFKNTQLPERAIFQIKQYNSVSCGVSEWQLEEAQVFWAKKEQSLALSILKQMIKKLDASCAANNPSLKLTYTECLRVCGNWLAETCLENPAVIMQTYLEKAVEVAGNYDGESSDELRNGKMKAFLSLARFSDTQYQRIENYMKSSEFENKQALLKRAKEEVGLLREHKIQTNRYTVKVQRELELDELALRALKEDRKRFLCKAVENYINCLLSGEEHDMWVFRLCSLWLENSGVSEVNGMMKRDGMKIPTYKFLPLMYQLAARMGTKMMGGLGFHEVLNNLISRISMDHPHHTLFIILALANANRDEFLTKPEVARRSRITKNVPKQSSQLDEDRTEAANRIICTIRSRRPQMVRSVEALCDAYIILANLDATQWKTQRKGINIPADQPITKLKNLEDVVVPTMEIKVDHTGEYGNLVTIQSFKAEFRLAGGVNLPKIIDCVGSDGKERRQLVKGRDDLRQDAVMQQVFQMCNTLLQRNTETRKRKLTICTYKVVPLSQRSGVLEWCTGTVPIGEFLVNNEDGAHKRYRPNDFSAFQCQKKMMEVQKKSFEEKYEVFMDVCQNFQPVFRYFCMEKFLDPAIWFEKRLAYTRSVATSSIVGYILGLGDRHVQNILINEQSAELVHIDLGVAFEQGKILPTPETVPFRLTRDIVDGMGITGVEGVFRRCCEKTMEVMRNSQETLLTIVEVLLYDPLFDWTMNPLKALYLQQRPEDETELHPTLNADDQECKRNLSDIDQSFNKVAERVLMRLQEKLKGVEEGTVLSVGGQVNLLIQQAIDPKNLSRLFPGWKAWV

In the case of `CC(CN1CCC(F)(F)C1)Nc1ccc2c(c1)Sc1cccc(-c3cc(N4CCOCC4)cc(=O)[nH]3)c1S2` (stereo not drawn) [Example 1-43-7, 6-(7-((1-(3,3-Difluoropyrrolidin-1-yl)propan-2-yl)amino)thianthren-1-yl)-4-morpholino pyridin-2(1H)-one], the IC50 is reported as 100 to 500 nM.
With `O=c1cc(N2CCOCC2)cc(-c2cccc3c2Sc2ccc(NC4CN(Cc5cccnc5)C4)cc2S3)[nH]1` [Example 1-24-21, 4-Morpholino-6-(7-((1-(pyridin-3-ylmethyl)azetidin-3-yl)amino)thianthren-1-yl)pyridin-2(1H)-one] the IC50 was 100 to 500 nM.
`Nc1ncc(CNc2ccc3c(c2)Cc2cccc(-c4cc(N5CCOCC5)cc(=O)[nH]4)c2O3)cn1` [Example 2-2-15, 6-(7-(((2-Aminopyrimidin-5-yl)methyl)amino)-9H-xanthen-4-yl)-4-morpholino pyridin-2(1H)-one] gave an IC50 of 500 to 2000 nM.
`CC(C)(C)OC(=O)N1CCC(Nc2ccc3c(c2)Cc2cccc(-c4cc(N5CCOCC5)cc(=O)[nH]4)c2O3)CC1` [Example 2-3-12, tert-Butyl 4-((5-(4-morpholino-6-oxo-1,6-dihydropyridin-2-yl)-9H-xanthen-2-yl)amino) piperidine-1-carboxylate] gave an IC50 of 100 to 500 nM.
Molecule `O=c1cc(N2CCOCC2)cc(-c2cccc3c2Oc2ccc(NC4CCN(Cc5cccc(C6CC6)n5)CC4)cc2C3)[nH]1` [Example 2-28-31, 6-(7-((1-((6-Cyclopropylpyridin-2-yl)methyl)piperidin-4-yl)amino)-9H-xanthen-4-yl)-4-morpholino pyridin-2(1H)-one] has an IC50 of 100 to 500 nM.
With `COc1cccc(CNc2ccc3c(c2)Cc2cccc(-c4cc(N5CCOCC5)cc(=O)[nH]4)c2O3)n1` [Example 2-2-32, 6-(7-(((6-Methoxypyridin-2-yl)methyl)amino)-9H-xanthen-4-yl)-4-morpholino pyridin-2(1H)-one] the IC50 was 100 to 500 nM.
Molecule `Cc1ccc(C(Nc2ccc3c(c2)Sc2cccc(-c4cc(N5CCOCC5)cc(=O)[nH]4)c2S3)C2CCCC2)nc1` (stereo not drawn) [Example 1-12-125, 6-(7-((Cyclopentyl(5-methylpyridin-2-yl)methyl)amino)thianthren-1-yl)-4-morpholino pyridin-2(1H)-one] has an IC50 of 100 to 500 nM.
For `CCOC(=O)C(C)Nc1ccc2c(c1)Sc1cccc(-c3cc(N4CCOCC4)cc(=O)[nH]3)c1S2` (stereo not drawn) [Example 1-12-55, Ethyl 2-((6-(4-morpholino-6-oxo-1,6-dihydropyridin-2-yl)thianthren-2-yl)amino) propanoate], the IC50 was 100 to 500 nM.
Molecule `O=C(OCc1ccccc1)N1C[C@@H](N2CCOCC2)[C@H](Nc2ccc3c(c2)Sc2cccc(-c4cc(N5CCOCC5)cc(=O)[nH]4)c2S3)C1` (racemic) [Example 11-1, Benzyl 3-morpholino-4-((6-(4-morpholino-6-oxo-1,6-dihydropyridin-2-yl)thianthren-2-yl)amino)pyrrolidine-1-carboxylate] has an IC50 of 100 to 500 nM.
`O=C1CCN1c1cncc(CNc2ccc3c(c2)Cc2cccc(-c4cc(N5CCOCC5)cc(=O)[nH]4)c2O3)c1` [Example 2-2-70, 4-Morpholino-6-(7-(((5-(2-oxoazetidin-1-yl)pyridin-3-yl)methyl)amino)-9H-xanthen-4-yl)pyridin-2(1H)-one] showed an IC50 of 100 to 500 nM.
`CC(Nc1ccc2c(c1)Cc1cccc(-c3cc(N4CCOCC4)cc(=O)[nH]3)c1O2)c1cc(Cl)ncn1` (stereo not drawn) [Example 2-14-59, 6-(7-((1-(6-Chloropyrimidin-4-yl)ethyl)amino)-9H-xanthen-4-yl)-4-morpholino pyridin-2(1H)-one] was tested, and the IC50 was 100 to 500 nM.
`COc1ncc(C(C)Nc2ccc3c(c2)Cc2cccc(-c4cc(N5CCOCC5)cc(=O)[nH]4)c2O3)cn1` (stereo not drawn) [Example 2-14-55, 6-(7-((1-(2-Methoxypyrimidin-5-yl)ethyl)amino)-9H-xanthen-4-yl)-4-morpholino pyridin-2 (1H)-one] was tested, and the IC50 was 100 to 500 nM.
`O=C(CN1C2CCC1COC2)Nc1ccc2c(c1)Sc1cccc(-c3cc(N4CCOCC4)cc(=O)[nH]3)c1S2` [Example 1-7-2, 2-(3-Oxa-8-azabicyclo[3.2.1]octan-8-yl)-N-(6-(4-morpholino-6-oxo-1,6-dihydropyridin-2-yl)thianthren-2-yl)acetamide] gave an IC50 of 100 to 500 nM.
`COC[C@H](CN(C)C1CCCCC1)Nc1ccc2c(c1)Sc1cccc(-c3cc(N4CCOCC4)cc(=O)[nH]3)c1S2` [Example 1-46-12, (S)-6-(7-((1-(Cyclohexyl (methyl)amino)-3-methoxypropan-2-yl)amino)thianthren-1-yl)-4-morpholino pyridin-2 (1H)-one] was tested, and the IC50 was 100 to 500 nM.
`CC(CNc1ccc2c(c1)Sc1cccc(-c3cc(N4CCOCC4)cc(=O)[nH]3)c1S2)CN1CCOCC1` (stereo not drawn) [Example 8-4, 6-(7-((2-Methyl-3-morpholinopropyl)amino)thianthren-1-yl)-4-morpholinopyridin-2(1H)-one] was tested, and the IC50 was 100 to 500 nM.
In the case of `CC(Nc1ccc2c(c1)Cc1cccc(-c3cc(N4CCOCC4)cc(=O)[nH]3)c1O2)c1cc(Cl)ccn1` (single isomer, unassigned) [Example 2-14-89-1, 6-(7-((1-(4-chloropyridin-2-yl)ethyl)amino)-9H-xanthen-4-yl)-4-morpholinopyridin-2(1H)-one], the IC50 is reported as 100 to 500 nM.
Molecule `COc1cncc(C(C)Nc2ccc3c(c2)Cc2cccc(-c4nc(N5CCOCC5)cc(=O)[nH]4)c2O3)c1` (stereo not drawn) [Example 2-52-4, 2-(7-((1-(5-Methoxypyridin-3-yl)ethyl)amino)-9H-xanthen-4-yl)-6-morpholinopyrimidine-4(3H)-one] has an IC50 of 100 to 500 nM.
`O=c1cc(N2CCOCC2)cc(-c2cccc3c2Cc2ccc(NCc4ccc(Cl)nc4)cc2O3)[nH]1` [Example 6, 6-(6-(((6-chloropyridin-3-yl)methyl)amino)-9H-xanthen-1-yl)-4-morpholinopyridin-2(1H)-one] gave an IC50 of 500 to 2000 nM.
Molecule `CCC(Nc1ccc2c(c1)Cc1cccc(-c3cc(N4CCOCC4)cc(=O)[nH]3)c1O2)c1cncc(OC)c1` (single isomer, unassigned) [Example 2-37, 6-(7-((1-(5-methoxypyridin-3-yl)propyl)amino)-9H-xanthen-4-yl)-4-morpholinopyridin-2(1H)-one] has an IC50 of 100 to 500 nM.
In the case of `O=c1cc(N2CCOCC2)cc(-c2cccc3c2Sc2ccc(NCCN4CCSCC4)cc2S3)[nH]1` [Example 1-16-4, 4-Morpholino-6-(7-((2-thiomorpholinoethyl)amino)thianthren-1-yl)pyridin-2(1H)-one], the IC50 is reported as under 100 nM.
With `O=c1cc(N2CCOCC2)cc(-c2cccc3c2Sc2ccccc2S3)[nH]1` [Example 1-53, 4-morpholino-6-(thianthren-1-yl)pyridin-2(1H)-one] the IC50 was 500 to 2000 nM.
`O=c1cc(N2CCOCC2)cc(-c2cccc3c2Oc2ccc(NC4CCN(Cc5ccco5)CC4)cc2C3)[nH]1` [Example 2-28-27, 6-(7-((1-(Furan-2-ylmethyl)piperidin-4-yl)amino)-9H-xanthen-4-yl)-4-morpholino pyridin-2(1H)-one] showed an IC50 of 100 to 500 nM.
For `N#CCN1CCC(Nc2ccc3c(c2)Cc2cccc(-c4cc(N5CCOCC5)cc(=O)[nH]4)c2O3)CC1` [Example 2-30-1, 2-(4-((5-(4-morpholino-6-oxo-1,6-dihydropyridin-2-yl)-9H-xanthen-2-yl)amino)piperidin-1-yl)acetonitrile], the IC50 was 100 to 500 nM.
`O=c1cc(N2CCOCC2)cc(-c2cccc3c2Oc2ccc(NC4CCN(CC(O)c5ccccc5)CC4)cc2C3)[nH]1` (stereo not drawn) [Example 2-30-13, 6-(7-((1-(2-Hydroxy-2-phenylethyl)piperidin-4-yl)amino)-9H-xanthen-4-yl)-4-morpholino pyridin-2(1H)-one] was tested, and the IC50 was 100 to 500 nM.
`COC1CN(CCC(Nc2ccc3c(c2)Sc2cccc(-c4cc(N5CCOCC5)cc(=O)[nH]4)c2S3)c2ccc(C)cn2)C1` (single isomer, unassigned) [Example 1-51-8, 6-(7-((3-(3-Methoxyazetidin-1-yl)-1-(5-methylpyridin-2-yl)propyl)amino)thianthren-1-yl)-4-morpholino pyridin-2 (1H)-one] gave an IC50 of under 100 nM.
Work on `O=c1cc(N2CCOCC2)cc(-c2cccc3c2Oc2ccc(NC4CCCN(CCc5ccccc5)CC4)cc2C3)[nH]1` (stereo not drawn) [Example 2-19-5, 4-Morpholino-6-(7-((1-phenethylazepan-4-yl)amino)-9H-xanthen-4-yl)pyridin-2(1H)-one] yielded an IC50 of 100 to 500 nM.
`Cc1ccnc(C(CO)Nc2ccc3c(c2)Cc2cccc(-c4cc(N5CCOCC5)cc(=O)[nH]4)c2O3)n1` (stereo not drawn) [Example 2-14-82, 6-(7-((2-Hydroxy-1-(4-methylpyrimidin-2-yl)ethyl)amino)-9H-xanthen-4-yl)-4-morpholino pyridin-2(1H)-one] was tested, and the IC50 was 500 to 2000 nM.
For `COCCNCC(Nc1ccc2c(c1)Sc1cccc(-c3cc(N4CCOCC4)cc(=O)[nH]3)c1S2)c1cccc(C)n1` (stereo not drawn) [Example 1-34-2, 6-(7-((2-((2-Methoxyethyl)amino)-1-(6-methylpyridin-2-yl)ethyl)amino)thianthren-1-yl)-4-morpholino pyridin-2 (1H)-one], the IC50 was 100 to 500 nM.
For `CC(Nc1ccc2c(c1)Sc1cccc(-c3cc(N4CCOCC4)cc(=O)[nH]3)c1S2)c1ccnc(C#N)n1` (stereo not drawn) [Example 1-12-82, 4-(1-((6-(4-Morpholino-6-oxo-1,6-dihydropyridin-2-yl)thianthren-2-yl)amino)ethyl) pyrimidine-2-carbonitrile], the IC50 was 100 to 500 nM.
Molecule `O=c1cc(N2CCOCC2)cc(-c2nccc3c2Oc2ccc(NCc4cncc(C5CC5)c4)cc2C3)[nH]1` [Example 2-41-11, 6-(7-(((5-Cyclopropylpyridin-3-yl)methyl)amino)-5H-chromeno[2,3-c]pyridin-1-yl)-4-morpholino pyridin-2(1H)-one] has an IC50 of 100 to 500 nM.
